Assay [1] concerns the target T1, NET (Homo sapiens, UniProt P23975). In words: hNET membrane radioligand binding assay (3H-nisoxetine). As to conditions: hNET membranes (HEK-293), 1.0 nM 3H-nisoxetine; read-out: NET pKi (converted). Also noted: expressed in transfected cells; host or cells: HEK-293. As to the method:
(§1) Membrane radioligand binding assays were used to measure inhibition of labeled ligand (^3H-citalopram or ^3H-nisoxetine or ^3H-WIN35428) binding to membranes prepared from cells expressing the respective human recombinant transporter (hSERT or hNET or hDAT) in order to determine the pKi values of test compounds at the transporters.
(§2) Recombinant human embryonic kidney (HEK-293) derived cell lines stably transfected with hSERT or hNET, respectively, were grown in DMEM medium supplemented with 10% dialyzed FBS (for hSERT) or FBS (for hNET), 100 μg/ml penicillin, 100 μg/ml streptomycin, 2 mM L-glutamine and 250 μg/ml of the aminoglycoside antibiotic G418, in a 5% CO2 humidified incubator at 37° C. When cultures reached 80% confluence, the cells were washed thoroughly in PBS (without Ca^2+ and Mg^2+) and lifted with 5 mM EDTA in PBS. Cells were pelleted by centrifugation, resuspended in lysis buffer (10 mM Tris-HCl, pH7.5 containing 1 mM EDTA), homogenized, pelleted by centrifugation, then resuspended in 50 mM Tris-HCl, pH 7.5 and 10% sucrose at 4° C. Protein concentration of the membrane suspension was determined using a Bio-Rad Bradford Protein Assay kit. Membranes were snap frozen and stored at −80° C. Chinese hamster ovary membranes expressing hDAT (CHO-DAT) were purchased from PerkinElmer and stored at −80° C.
(§3) Binding assays were performed in a 96-well assay plate in a total volume of 200 μl assay buffer (50 mM Tris-HCl, 120 mM NaCl, 5 mM KCl, pH 7.4) with 0.5, 1, and 3 μg membrane protein, for SERT, NET and DAT, respectively.
(§4) Stock solutions (10 mM in DMSO) of test compound were prepared and serial dilutions made using Dilution Buffer (50 mM Tris-HCl, 120 mM NaCl, 5 mM KCl, pH 7.4, 0.1% BSA, 400 μM ascorbic acid). Non-specific radioligand binding was determined in the presence of 1 μM duloxetine, 1 μM desipramine or 10 μM GBR12909 (each in Dilution Buffer) for the hSERT, hNET or hDAT assays, respectively.
(§5) Following a 60 minute incubation at 22° C. (or a period sufficient to reach equilibrium), the membranes were harvested by rapid filtration over a 96-well UniFilter GF/B plate, pretreated with 0.3% polyethyleneimine, and washed 6 times with […] (50 mM Tris-HCl, 0.9% NaCl, pH 7.5 at 4° C.). Plates were dried overnight at room temperature, approximately […] of MicroScint™-20 (Perkin Elmer) added and bound radioactivity quantitated via liquid scintillation spectroscopy. Inhibition curves and saturation isotherms were analyzed using GraphPad Prism Software package (GraphPad Software, Inc., San Diego, Calif.). IC50 values were generated from concentration response curves using the Sigmoidal Dose Response (variable slope) algorithm in Prism GraphPad. Kd and Bmax values for the radioligand were generated from saturation isotherms using the Saturation Binding Global Fit algorithm in Prism GraphPad. pKi (negative decadic logarithm of Ki) values for test compounds were calculated from the best-fit IC50 values, and the Kd value of the radioligand, using the Cheng-Prusoff equation (Cheng & Prusoff (1973) Biochem. Pharmacol. 22(23):3099-3108): Ki=IC50/(1+[L]/Kd), where [L]=concentration radioligand.

In assay [2] the target is T2, SERT (Homo sapiens, UniProt P31645). The experiment in a line: hSERT membrane radioligand binding assay (3H-citalopram). As to conditions: hSERT membranes (HEK-293), 1.0 nM 3H-citalopram; for Ki: read-out: SERT pKi (converted). Details: expressed in transfected cells; host or cells: HEK-293. The method, then:
as §1, §2, §3, §4, §5
Target sequence in this assay (P31645 whole entry): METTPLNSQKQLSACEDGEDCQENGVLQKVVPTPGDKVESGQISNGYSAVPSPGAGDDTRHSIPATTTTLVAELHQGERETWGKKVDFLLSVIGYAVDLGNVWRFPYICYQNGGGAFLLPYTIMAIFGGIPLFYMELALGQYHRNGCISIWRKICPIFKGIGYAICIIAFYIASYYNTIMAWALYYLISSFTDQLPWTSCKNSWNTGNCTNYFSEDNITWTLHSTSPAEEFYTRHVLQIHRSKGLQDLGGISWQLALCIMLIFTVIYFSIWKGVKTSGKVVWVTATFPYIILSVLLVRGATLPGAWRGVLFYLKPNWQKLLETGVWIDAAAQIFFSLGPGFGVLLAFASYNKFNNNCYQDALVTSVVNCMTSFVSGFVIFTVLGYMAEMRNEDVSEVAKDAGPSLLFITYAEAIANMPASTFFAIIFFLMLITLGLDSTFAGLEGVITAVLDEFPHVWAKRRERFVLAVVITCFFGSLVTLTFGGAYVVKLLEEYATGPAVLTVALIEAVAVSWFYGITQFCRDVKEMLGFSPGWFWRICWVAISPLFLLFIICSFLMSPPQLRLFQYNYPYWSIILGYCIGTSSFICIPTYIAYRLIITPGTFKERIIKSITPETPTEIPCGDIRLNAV

Assay [3] addresses T2, SERT. The experiment in a line: fluorescence-based serotonin uptake assay (Tsuruda et al. 2010). The assay is classed as cell-based. As to conditions: serotonin reuptake inhibition, fluorescence-based assay (data indicated by an asterisk); read-out: SERT pIC50 (converted).
Target sequence in this assay (P31645 whole entry, species assumed): as the sequence (P31645 whole entry) above
In assay [4] the target is T1, NET. In words: fluorescence-based norepinephrine uptake assay (Tsuruda et al. 2010). The assay is classed as cell-based. As to conditions: norepinephrine reuptake inhibition, fluorescence-based assay (data indicated by an asterisk); read-out: NET pIC50 (converted).

T1 sequence (P23975 whole entry): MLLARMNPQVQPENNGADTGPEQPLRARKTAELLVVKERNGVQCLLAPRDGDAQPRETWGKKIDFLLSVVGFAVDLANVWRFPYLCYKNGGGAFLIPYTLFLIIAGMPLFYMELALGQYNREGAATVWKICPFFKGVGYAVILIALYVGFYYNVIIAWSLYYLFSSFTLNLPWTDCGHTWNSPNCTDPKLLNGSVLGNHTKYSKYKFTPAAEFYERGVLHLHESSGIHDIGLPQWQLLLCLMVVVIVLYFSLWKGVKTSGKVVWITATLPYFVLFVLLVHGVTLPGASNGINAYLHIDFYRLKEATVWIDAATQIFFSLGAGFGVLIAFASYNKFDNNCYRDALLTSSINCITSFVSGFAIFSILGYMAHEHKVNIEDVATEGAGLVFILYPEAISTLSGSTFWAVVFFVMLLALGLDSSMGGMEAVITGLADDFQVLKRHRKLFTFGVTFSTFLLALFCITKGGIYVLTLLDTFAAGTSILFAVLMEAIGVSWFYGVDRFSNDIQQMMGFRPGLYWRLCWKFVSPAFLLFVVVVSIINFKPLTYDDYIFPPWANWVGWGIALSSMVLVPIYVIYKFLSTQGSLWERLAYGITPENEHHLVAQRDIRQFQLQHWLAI

Consider `COCC(Oc1ccccc1Cl)C1CCNC1` (single isomer, unassigned) [Example 4-2, 3-[1-(2-Chlorophenoxy)-2-methoxyethyl]pyrrolidine], for which the Ki on NET [1] is no more than 10 nM. Besides, at SERT [2], the “SERT pKi” value is “≧7.0”.
Consider `CSCCC(Oc1cccc(Cl)c1Cl)C1CCNC1` (mixture of isomers) [Example 20, 3-[1-(2,3-Dichlorophenoxy)-3-methylsulfanylpropyl]pyrrolidine], for which the Ki at NET [1] and at SERT [2] was no more than 10 nM each time.
Regarding `FC(F)(F)c1ccc(O[C@@H](C2CCOCC2)[C@H]2CCNC2)cc1` [Example 13-11, (S)-3-[(S)-(Tetrahydropyran-4-yl)(4-trifluoromethylphenoxy)methyl]pyrrolidine], the IC50 is no more than 10 nM at SERT [3] and no more than 100 nM at NET [4]. The results for the Ki at NET [1] and at SERT [2] were no more than 100 nM and no more than 10 nM, respectively.
For `COC[C@@H](Oc1c(Cl)cccc1Cl)[C@H]1CCNC1` [Example 4-27, (S)-3-[(S)-1-(2,6-Dichlorophenoxy)-2-methoxyethyl]pyrrolidine], the Ki on NET [1] and at SERT [2] was no more than 100 nM in each case.
On to `Clc1cc(Cl)cc(O[C@@H](C2CCOCC2)[C@H]2CCNC2)c1` [Example 13-28, (S)-3-[(S)-(3,5-Dichlorophenoxy)(tetrahydropyran-4-yl)methyl]pyrrolidine], for which the Ki on NET [1] is no more than 100 nM; at SERT [2], no more than 10 nM.
For the molecule `COC[C@H](Oc1c(Cl)cccc1Cl)[C@H]1CCNC1` [Example 4-28, (S)-3-[(R)-1-(2,6-Dichlorophenoxy)-2-methoxyethyl]pyrrolidine], the Ki is no more than 10 nM at NET [1] and no more than 100 nM at SERT [2].
The like results for `Clc1cccc(Cl)c1O[C@H](C1CCOCC1)[C@H]1CCNC1` [Example 13-25, (S)-3-[(R)-(2,6-Dichlorophenoxy)(tetrahydropyran-4-yl)methyl]pyrrolidine] were, in that order, no more than 100 nM and no more than 100 nM.
Taken in the same sequence, the figures for `COC[C@H](Oc1cccc(C(F)(F)F)c1)[C@H]1CCNC1` [Example 4-3, (S)-3-[(R)-2-Methoxy-1-(3-trifluoromethylphenoxy)ethyl]pyrrolidine] were no more than 100 nM and no more than 100 nM.
Taken in the same sequence, the figures for `FC(F)(F)c1c(Cl)cccc1O[C@H](C1CCOCC1)[C@H]1CCNC1` [Example 13-19, (S)-3-[(R)-(3-Chloro-2-trifluoromethylphenoxy)(tetrahydropyran-4-yl)-methyl]-pyrrolidine] were no more than 100 nM and no more than 10 nM.
As to `FC(F)(F)c1cccc(O[C@H](C2CCOCC2)[C@@H]2CCNC2)c1` [Example 13-7, (R)-3-[(R)-(Tetrahydropyran-4-yl)(3-trifluoromethylphenoxy)methyl]pyrrolidine], the Ki at NET [1] and on SERT [2] was no more than 100 nM in each case.
Consider `Fc1ccc(O[C@H](C2CCOCC2)[C@@H]2CCNC2)cc1` [Example 13-10, (R)-3-[(R)-(4-Fluorophenoxy)(tetrahydropyran-4-yl)methyl]pyrrolidine], for which the Ki at NET [1] and on SERT [2] was no more than 100 nM throughout.
As for `COC[C@H](Oc1cccc(Cl)c1C)[C@@H]1CCNC1` [Example 4-17, (R)-3-[(R)-1-(3-Chloro-2-methylphenoxy)-2-methoxyethyl]pyrrolidine], the Ki was no more than 100 nM on NET [1] and no more than 10 nM on SERT [2].
`CC(C)OC[C@H](Oc1cccc(Cl)c1C(F)(F)F)[C@@H]1CCNC1` [Example 9-18, (R)-3-[(R)-1-(3-Chloro-2-trifluoromethylphenoxy)-2-isopropoxyethyl]pyrrolidine]: the IC50 on SERT [3] and on NET [4] was no more than 100 nM in each case. For the same molecule, the Ki was no more than 100 nM on NET [1] and no more than 10 nM on SERT [2].
For `CC(C)OC[C@H](Oc1ccc(Cl)cc1Cl)[C@@H]1CCNC1` [Example 9-22, (R)-3-[(R)-1-(2,4-Dichlorophenoxy)-2-isopropoxyethyl]pyrrolidine], the results for the IC50 at SERT [3] and at NET [4] were no more than 10 nM and no more than 1000 nM, respectively. The Ki is no more than 1000 nM on NET [1] and no more than 10 nM on SERT [2].
As for `COCC(Oc1ccccc1Cl)C1CCNC1` (single isomer, unassigned) [Example 4-1, 3-[1-(2-Chlorophenoxy)-2-methoxyethyl]pyrrolidine], the Ki on NET [1] and on SERT [2] was no more than 100 nM each time.
On to `FC(F)(F)c1c(Cl)cccc1O[C@@H](C1CCOCC1)[C@@H]1CCNC1` [Example 13-21, (R)-3-[(S)-(3-Chloro-2-trifluoromethylphenoxy)(tetrahydropyran-4-yl)-methyl]-pyrrolidine], for which the Ki at NET [1] is no more than 100 nM; at SERT [2] it was no more than 10 nM.
With `CC(C)OC[C@H](Oc1c(Cl)cccc1Cl)[C@@H]1CCNC1` [Example 9-27, (R)-3-[(R)-1-(2,6-Dichlorophenoxy)-2-isopropoxyethyl]pyrrolidine], the IC50 is no more than 1000 nM at SERT [3] and no more than 100 nM on NET [4]. For the same molecule, the Ki on NET [1] and on SERT [2] was no more than 1000 nM in each case.
As for `FC(F)(F)c1c(Cl)cccc1OC(C1CCOCC1)C1CCNC1` [Example 13-18, (S)-3-[(S)-(3-Chloro-2-trifluoromethylphenoxy)(tetrahydropyran-4-yl)-methy]-pyrrolidine], the Ki on NET [1] is no more than 100 nM; on SERT [2], no more than 10 nM.
As to `CC(C)OC[C@H](Oc1cccc(F)c1Cl)[C@@H]1CCNC1` [Example 9-10, (R)-3-[(R)-1-(2-Chloro-3-fluorophenoxy)-2-isopropoxyethyl]pyrrolidine], the IC50 at SERT [3] and at NET [4] was no more than 100 nM in each case. In addition, the Ki at NET [1] and at SERT [2] was no more than 100 nM each time.
In the case of `CC(C)OC[C@H](Oc1cccc(C(F)(F)F)c1)[C@@H]1CCNC1` [Example 9-2, (R)-3-[(R)-2-Isopropoxy-1-(3-trifluoromethylphenoxy)ethyl]pyrrolidine], the IC50 on SERT [3] is no more than 100 nM; on NET [4] it was no more than 1000 nM. Also, the Ki was no more than 10000 nM on NET [1] and no more than 100 nM at SERT [2].
As for `Clc1cccc(Cl)c1O[C@H](C1CCOCC1)[C@@H]1CCNC1` [Example 13-26, (R)-3-[(R)-(2,6-Dichlorophenoxy)(tetrahydropyran-4-yl)methyl]pyrrolidine], the Ki at NET [1] is no more than 10 nM; at SERT [2], no more than 100 nM.
Taken in the same sequence, the figures for `COCCC(Oc1ccc(Cl)cc1C)C1CCNC1` (single isomer, unassigned) [5 (1st peak)] were no more than 100 nM and no more than 10 nM.
The like results for `COC[C@H](Oc1cccc(Cl)c1Cl)[C@@H]1CCNC1` [Example 4-8, (R)-3-[(R)-1-(2,3-Dichlorophenoxy)-2-methoxyethyl]pyrrolidine] were, in that order, no more than 100 nM and no more than 10 nM.
The like results for `Clc1cccc(Cl)c1O[C@@H](C1CCOCC1)[C@@H]1CCNC1` [Example 13-27, (R)-3-[(S)-(2,6-Dichlorophenoxy)(tetrahydropyran-4-yl)methyl]pyrrolidine] were, in that order, no more than 10 nM and no more than 100 nM.
With `Clc1ccccc1O[C@H](C1CCOCC1)[C@@H]1CCNC1` [Example 13-2, (R)-3-[(R)-(2-Chlorophenoxy)(tetrahydropyran-4-yl)methyl]pyrrolidine], the Ki was no more than 10 nM on NET [1] and no more than 100 nM on SERT [2].

For the origin of these results see US8455665B2, “3-phenoxymethylpyrrolidine compounds” (Theravance, Inc., priority 2009, dated 2013).
